According to patent US8138148B2, “GDNF derived peptides” (Copenhagen University, priority 2005, dated 2012):

Experiments:
[1] = test system: hippocampal neurons; assay: Neurite outgrowth of hippocampal neurons transfected with dominant negative FGFR; format: cell-based, rat; details: 10 ng/ml GDNF or 3 μg/ml GDNFp1, 18 hours, dnFGFR vs empty vector
Method: For cocultures, L-cells were seeded in 8-well LabTek® Permanox Chamber slides at a density of 100.000 cells/well, except for transfection experiments where cells were seeded in 4-well LabTek® Permanox Chamber slides at a density of 200.000 cells/well. L-cells were grown for 24 hours in DMEM supplemented with 10% (v/v) FCS, 1% (v/v) glutamax, 100 U/ml penicillin, 100 μg/ml streptomycin, 2.5 μg/ml fungizone, and 567 μg/ml neomycin (G418), followed by washing twice in neurobasal medium with supplements before primary hippocampal neurons were seeded at a density of 7.000 cells/well in 8-well slides or 20.000 cells/well in 4-well slides.
Additionally, neurons were transiently transfected with a dominant negative version of the FGFR (dnFGFR), As an alternative to the use of a pharmacological FGFR inhibitor, The dnFGFR plasmid encodes an FGFR that lacks the kinase domain. This mutant receptor inhibits the function of wild type FGFR by engaging in dimers that lack kinase activity. Transfection with an empty vector served as control. Transfection was also done with wtFGFR in order to assess the effect of overexpressing the FGFR.
Transfections were performed with a Nucleofector™ device and a Rat Neuron Nucleofector™ kit (Amaxa Inc., Gaithersburg, Md., USA). This transfection method is based on electroporation in combination with a Nucleofector™ solution containing lipophilic agents. These agents form liposomes containing the plasmid DNA, which then enter the cells during electroporation. The method allows transfection of undividing cells such as neurons. 3 μg of the plasmid of interest was mixed with the Nucleofector™ solution and primary hippocampal neurons were resuspended in the mixture, electroporated in the Nucleofector™ device, and transferred to neurobasal medium with supplements and 5% (v/v) FCS. Cells were then incubated for 2 hours after which they were resuspended in medium without serum, counted, seeded and incubated for 6 hours before GDNF or GDNFp1 was added. Medium alone was added to control and cells were incubated for 18 hours.
All transient transfections in this study included co-transfection with a plasmid encoding EGFP, which allows the identification of transfected cells. To ensure that all EGFP-expressing cells also are transfected with the plasmid of interest, a ratio of […] between the EGFP-encoding plasmid and the plasmid of interest was used (i.e. 0.5 μg EGFP-encoding plasmid was used for each transfection).
Neurite outgrowth experiments were terminated after the stated time by fixating the cells. To visualize neurons and their neurites, immunostaining of GAP-43 was performed. This staining is specific for neurons. Transfected cells and their neurites should be visible without immunostaining due to the fluorescence emitted by GFP. […]

[2] = test system: dopaminergic neurons; assay: Survival assay, dopaminergic neurons (6-OHDA); format: cell-based, Wistar rat; details: 100 μM 6-OHDA for two hours, further 24 hours with peptide
Method: Dopaminergic neurons were prepared from Wistar rat embryos at embryonic day 15 (Charles River, Sulzfeld, Germany or Møllegaard, Denmark). A pregnant rat was sacrificed and the uterus was taken out and kept on ice in Hank's balanced salt solution (HBSS; Gibco, BRL). The ventral part of the mesencephalon was dissected from the embryonic brains, homogenised on ice in Gey's balanced salt solution (GBSS; Gibco, BRL) supplemented with 5 g glucose/l (Sigma-Aldrich) and thereafter trypsinised. The dissociated cells were washed in the presence of DNAse 1 and soybean trypsin inhibitor (Sigma-Aldrich).
Dopaminergic neurons were seeded at a density of 150,000 cells/cm^2 in 24-well cell culture plates coated with poly-D-lysine as described above. The neurons were left to differentiate for six days without or with various concentrations of peptide, after which 6-OHDA was added at a concentration of 100 μM for two hours. A stock solution was prepared by dissolving 6-OHDAto a concentration of 10 mM in 0.1% (w/v) sodium metabisulphite in order to prevent oxidation. After two hours with 6-OHDA, the medium was changed to Neurobasal medium with supplements and peptide, and the cell cultures were further incubated for 24 hours, fixed and immunostained for tyrosine hydroxylase. 98 images for each experimental condition in each individual experiment were automatically video-recorded.

[3] = test system: Ig1-2 modules of NCAM; assay: Surface plasmon resonance (SPR) binding analysis, NCAM Ig1-2; details: immobilized receptor protein, 25° C., PBS pH 7.4
Method: (§1) Analysis of binding was performed employing a BIAcoreX instrument (Biosensor AB, Uppsala, Sweden) at 25° C. using 10 mM pH 7.4 sodium phosphate containing 150 mM NaCl as running buffer (phosphate-buffered saline, PBS). The flow-rate was 5 μl/min. Data were analysed by non-linear curve-fitting using the manufacturer's software. The receptor proteins, e.g. NCAM Ig1-Ig2 and GFR proteins, were immobilized on a sensor chip CM5 using an amine coupling kit (Biosensor AB) as follows: the chip was activated by 20 μl activation solution; the protein was immobilized using 12 μl 20 μg/ml protein in 10 mM sodium phosphate buffer pH 6.0; the chip was blocked by 35 μl blocking solution. Various peptides at the indicated concentrations were injected into the sensor chip. The curve corresponding to the difference between binding to receptor and a blank chip was used for analysis.

[4] = molecular target: T1, GFRα1 receptor (Homo sapiens, UniProt P56159); assay: Surface plasmon resonance (SPR) binding analysis, GFRα1; details: immobilized receptor protein, 25° C., PBS pH 7.4
T1 sequence (P56159 25-429): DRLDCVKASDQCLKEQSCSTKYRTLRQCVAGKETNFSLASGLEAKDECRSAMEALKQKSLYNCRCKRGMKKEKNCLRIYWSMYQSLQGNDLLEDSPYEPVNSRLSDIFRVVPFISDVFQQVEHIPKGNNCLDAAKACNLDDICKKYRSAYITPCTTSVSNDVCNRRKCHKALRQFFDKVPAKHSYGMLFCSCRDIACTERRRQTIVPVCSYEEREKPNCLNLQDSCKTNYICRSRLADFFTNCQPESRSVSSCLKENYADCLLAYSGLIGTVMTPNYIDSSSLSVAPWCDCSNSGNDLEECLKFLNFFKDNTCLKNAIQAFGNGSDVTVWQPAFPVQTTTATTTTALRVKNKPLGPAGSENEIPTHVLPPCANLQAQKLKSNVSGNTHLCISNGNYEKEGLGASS
Method: as §1

Sequence: ETTYDKILKNLSRNR (listed as Homo sapiens) [G2, GDNF fragment]
- neurite outgrowth mediated by the substance after transfection with dominant negative FGFR, on NCAM-expressing fibroblasts ([1]; NCAM-expressing fibroblasts): decreases neurite outgrowth
- neurite outgrowth mediated by the substance after transfection with dominant negative FGFR, on control fibroblasts ([1]; control fibroblasts): decreases neurite outgrowth
- survival of dopaminergic neurons [2]: increases the survival of dopaminergic neurons
- binding to the Ig1-2 modules of NCAM (SPR) [3]: Binding
- binding to the GFRα1 receptor (SPR) [4]: binding
